Test system: 229E human corona virus (hCoV)
Test: 229E live virus assay (CPE, ATPlite readout in MRC-5 cells)
Format: cell-based, hCoV-229E
Conditions: Human coronavirus 229E, MRC5, hCoV-229E live virus, MOI 0.05, ATPlite readout, run in duplicate

Structure (SMILES): CC(C)C[C@@H](C(=O)N1C[C@]2(C[C@H]1C#N)C(=O)Nc1ccccc12)N(C)C(=O)c1ccc2c(Br)cccc2n1 [Example 231]
- EC50: < 100 nM

Structure (SMILES): CC(C)C[C@@H](C(=O)N1C[C@]2(C[C@H]1C#N)C(=O)Nc1ccccc12)N(C)C(=O)c1ccc(-c2ccccc2)cc1 [Example 232]
- EC50: < 100 nM

Structure (SMILES): Cc1ccc2cc(C(=O)N(C)[C@@H](CC(C)C)C(=O)N3C[C@]4(C[C@H]3C#N)C(=O)Nc3ccccc34)ccc2n1 [Example 234]
- EC50: < 100 nM

Structure (SMILES): CC(C)C[C@@H](C(=O)N1C[C@]2(C[C@H]1C#N)C(=O)Nc1ccccc12)N(C)C(=O)c1ccc2ncc(F)cc2c1 [Example 235]
- EC50: < 100 nM

Structure (SMILES): CC(C)C[C@@H](C(=O)N1C[C@]2(C[C@H]1C#N)C(=O)Nc1ccccc12)N(C)C(=O)c1cc2ccc(Br)cc2cn1 [Example 236]
- EC50: < 100 nM

Structure (SMILES): CC(C)C[C@@H](C(=O)N1C[C@]2(C[C@H]1C#N)C(=O)Nc1ccccc12)N(C)C(=O)c1ccc2ncc(C(F)(F)F)cc2c1 [Example 237]
- EC50: < 100 nM

Structure (SMILES): Cc1cc2cc(C(=O)N(C)[C@@H](CC(C)C)C(=O)N3C[C@]4(C[C@H]3C#N)C(=O)Nc3ccccc34)cc(OC(F)(F)F)c2nc1C [Example 238]
- EC50: < 100 nM

Structure (SMILES): CC(C)C[C@@H](C(=O)N1C[C@]2(C[C@H]1C#N)C(=O)Nc1ccccc12)N(C)C(=O)c1cc(Cl)c2ncc(C3CC3)cc2c1 [Example 239]
- EC50: < 100 nM

Structure (SMILES): CC(C)C[C@@H](C(=O)N1C[C@]2(C[C@H]1C#N)C(=O)Nc1ccccc12)N(C)C(=O)c1cc(Cl)c2ncc(C(F)(F)F)cc2c1 [Example 240]
- EC50: < 100 nM

Structure (SMILES): CC(C)C[C@@H](C(=O)N1C[C@]2(C[C@H]1C#N)C(=O)Nc1ccccc12)N(C)C(=O)c1ccc2ccsc2c1 [Example 246]
- EC50: < 100 nM

Structure (SMILES): CC(C)C[C@@H](C(=O)N1C[C@]2(C[C@H]1C#N)C(=O)Nc1ccccc12)N(C)C(=O)c1cc2ccccn2n1 [Example 247]
- EC50: < 100 nM

Structure (SMILES): CC(C)C[C@@H](C(=O)N1C[C@]2(C[C@H]1C#N)C(=O)Nc1ccccc12)N(C)C(=O)C#Cc1ccccc1 [Example 248]
- EC50: < 100 nM

Structure (SMILES): COc1ccc2[nH]c(C(=O)N(C)[C@@H](CC(C)C)C(=O)N3C[C@]4(C[C@H]3C#N)C(=O)Nc3ccccc34)nc2c1 [Example 249]
- EC50: < 100 nM

Structure (SMILES): CC(C)C[C@@H](C(=O)N1C[C@]2(C[C@H]1C#N)C(=O)Nc1ccccc12)N(C)C(=O)c1nc2cc(F)ccc2[nH]1 [Example 250]
- EC50: < 100 nM

Structure (SMILES): CC(C)C[C@@H](C(=O)N1C[C@]2(C[C@H]1C#N)C(=O)Nc1ccccc12)N(C)C(=O)c1nc2cc(Cl)c(Cl)cc2[nH]1 [Example 251]
- EC50: < 100 nM

Structure (SMILES): Cc1cccc2[nH]c(C(=O)N(C)[C@@H](CC(C)C)C(=O)N3C[C@]4(C[C@H]3C#N)C(=O)Nc3ccccc34)nc12 [Example 252]
- EC50: < 100 nM

Structure (SMILES): CC(C)C[C@@H](C(=O)N1C[C@]2(C[C@H]1C#N)C(=O)Nc1ccccc12)N(C)C(=O)c1cc2cccnc2cc1OC(F)F [Example 253]
- EC50: < 100 nM

Structure (SMILES): CC(C)C[C@@H](C(=O)N1C[C@]2(C[C@H]1C#N)C(=O)Nc1ccccc12)N(C)C(=O)c1cc2ccc(=O)[nH]c2cc1OC1CC1 [Example 254]
- EC50: < 100 nM

Structure (SMILES): CC(C)C[C@@H](C(=O)N1C[C@]2(C[C@H]1C#N)C(=O)Nc1ccccc12)N(C)C(=O)c1cc(Cl)c2[nH]c(C3CC3)nc2c1 [Example 256]
- EC50: < 100 nM

Structure (SMILES): CC(C)C[C@@H](C(=O)N1C[C@]2(C[C@H]1C#N)C(=O)Nc1ccccc12)N(C)C(=O)c1ccc2nc(-c3ccccc3)ccc2c1 [Example 257]
- EC50: < 100 nM

Structure (SMILES): COc1cc(C(=O)N(C)[C@@H](CC(C)C)C(=O)N2C[C@]3(C[C@H]2C#N)C(=O)Nc2ccccc23)nc2ccccc12 [Example 258]
- EC50: < 100 nM

Structure (SMILES): Cc1cc(C)c2ccc(C(=O)N(C)[C@@H](CC(C)C)C(=O)N3C[C@]4(C[C@H]3C#N)C(=O)Nc3ccccc34)nc2c1O [Example 259]
- EC50: < 100 nM

Structure (SMILES): CC(C)C[C@@H](C(=O)N1C[C@]2(C[C@H]1C#N)C(=O)Nc1ccccc12)N(C)C(=O)c1cnc2ccccc2c1O [Example 260]
- EC50: < 100 nM

Structure (SMILES): CC(C)C[C@@H](C(=O)N1C[C@]2(C[C@H]1C#N)C(=O)Nc1ccccc12)N(C)C(=O)c1ccccc1-c1ccccc1 [Example 261]
- EC50: 100 to 1000 nM

Structure (SMILES): CC(C)C[C@@H](C(=O)N1C[C@]2(C[C@H]1C#N)C(=O)Nc1ccccc12)N(C)C(=O)c1cc(-c2ccccc2)ccc1Cl [Example 262]
- EC50: 100 to 1000 nM

Structure (SMILES): CC(C)C[C@@H](C(=O)N1C[C@]2(C[C@H]1C#N)C(=O)Nc1ccccc12)N(C)C(=O)c1cccc(-c2ccc(C(F)(F)F)cc2)c1 [Example 263]
- EC50: < 100 nM

Structure (SMILES): CC(C)C[C@@H](C(=O)N1C[C@]2(C[C@H]1C#N)C(=O)Nc1ccccc12)N(C)C(=O)c1cccc(-c2ccccc2F)c1 [Example 264]
- EC50: < 100 nM

Structure (SMILES): CC(C)C[C@@H](C(=O)N1C[C@]2(C[C@H]1C#N)C(=O)Nc1ccccc12)N(C)C(=O)c1cccc(-c2ccc(C#N)cc2)c1 [Example 265]
- EC50: 100 to 1000 nM

Structure (SMILES): CC(C)C[C@@H](C(=O)N1C[C@]2(C[C@H]1C#N)C(=O)Nc1ccccc12)N(C)C(=O)c1cccc(-c2cccc(Cl)c2)c1 [Example 266]
- EC50: < 100 nM

Structure (SMILES): CC(C)C[C@@H](C(=O)N1C[C@]2(C[C@H]1C#N)C(=O)Nc1ccccc12)N(C)C(=O)c1cn(-c2ccccn2)nn1 [Example 267]
- EC50: < 100 nM

Structure (SMILES): CC(C)C[C@@H](C(=O)N1C[C@]2(C[C@H]1C#N)C(=O)Nc1ccccc12)N(C)C(=O)c1cnc2c(C(F)(F)F)cccc2c1 [Example 268]
- EC50: < 100 nM

Structure (SMILES): CC(C)C[C@@H](C(=O)N1C[C@]2(C[C@H]1C#N)C(=O)Nc1ccccc12)N(C)C(=O)c1nc2c(F)cc(F)cc2[nH]1 [Example 269]
- EC50: < 100 nM

Structure (SMILES): CC(C)C[C@@H](C(=O)N1C[C@]2(C[C@H]1C#N)C(=O)Nc1ccccc12)N(C)C(=O)c1nc2c(F)cc(F)c(F)c2[nH]1 [Example 270]
- EC50: < 100 nM

Structure (SMILES): CC(C)C[C@@H](C(=O)N1C[C@]2(C[C@H]1C#N)C(=O)Nc1ccccc12)N(C)C(=O)c1ccc2c(Cl)ccnc2c1 [Example 271]
- EC50: < 100 nM

Structure (SMILES): CC(C)C[C@@H](C(=O)N1C[C@]2(C[C@H]1C#N)C(=O)Nc1ccccc12)N(C)C(=O)c1ccc(F)c(-c2ccccc2)c1 [Example 272]
- EC50: < 100 nM

Structure (SMILES): CC(C)C[C@@H](C(=O)N1C[C@]2(C[C@H]1C#N)C(=O)Nc1ccccc12)N(C)C(=O)c1nc2c(F)c(F)c(F)cc2[nH]1 [Example 273]
- EC50: < 100 nM

Structure (SMILES): CC(C)C[C@@H](C(=O)N1C[C@]2(C[C@H]1C#N)C(=O)Nc1ccccc12)N(C)C(=O)c1ccc2nccc(Br)c2c1 [Example 274]
- EC50: < 100 nM

Structure (SMILES): CC(C)C[C@@H](C(=O)N1C[C@]2(C[C@H]1C#N)C(=O)Nc1ccccc12)N(C)C(=O)c1cc2cccnc2cc1F [Example 275]
- EC50: < 100 nM

Structure (SMILES): CC(C)C[C@@H](C(=O)N1C[C@]2(C[C@H]1C#N)C(=O)Nc1ccccc12)N(C)C(=O)c1ccc2c(=O)[nH]ccc2c1 [Example 276]
- EC50: < 100 nM

Structure (SMILES): CC(C)C[C@@H](C(=O)N1C[C@]2(C[C@H]1C#N)C(=O)Nc1ccccc12)N(C)C(=O)c1ccc(-c2ccccc2)cc1 [Example 277]
- EC50: < 100 nM

Structure (SMILES): CC(C)C[C@@H](C(=O)N1C[C@]2(C[C@H]1C#N)C(=O)Nc1ccccc12)N(C)C(=O)c1cccc(-c2ccccc2C#N)c1 [Example 278]
- EC50: < 100 nM

Structure (SMILES): CC(C)C[C@@H](C(=O)N1C[C@]2(C[C@H]1C#N)C(=O)Nc1ccccc12)N(C)C(=O)c1cccc(-c2cccc(C#N)c2)c1 [Example 279]
- EC50: < 100 nM

Structure (SMILES): CC(C)C[C@@H](C(=O)N1C[C@]2(C[C@H]1C#N)C(=O)Nc1ccccc12)N(C)C(=O)c1nc2ccccc2n1C [Example 282]
- EC50: < 100 nM

Structure (SMILES): CC(C)C[C@@H](C(=O)N1C[C@]2(C[C@H]1C#N)C(=O)Nc1ccccc12)N(C)C(=O)c1cn(-c2ccc(F)cc2)nn1 [Example 283]
- EC50: < 100 nM

Structure (SMILES): CC(C)C[C@@H](C(=O)N1C[C@]2(C[C@H]1C#N)C(=O)Nc1ccccc12)N(C)C(=O)c1cn(-c2ccc(Cl)cc2)nn1 [Example 284]
- EC50: < 100 nM

Structure (SMILES): CC(C)C[C@@H](C(=O)N1C[C@]2(C[C@H]1C#N)C(=O)Nc1ccccc12)N(C)C(=O)c1ccc2cccnc2c1O [Example 285]
- EC50: < 100 nM

Structure (SMILES): CC(C)C[C@@H](C(=O)N1C[C@]2(C[C@H]1C#N)C(=O)Nc1ccccc12)N(C)C(=O)c1cn(-c2cccc(Cl)c2)nn1 [Example 286]
- EC50: < 100 nM

Structure (SMILES): CC(C)C[C@@H](C(=O)N1C[C@]2(C[C@H]1C#N)C(=O)Nc1ccccc12)N(C)C(=O)c1n[nH]c(-c2ccccc2)n1 [Example 288]
- EC50: < 100 nM

Structure (SMILES): CC(C)C[C@@H](C(=O)N1C[C@]2(C[C@H]1C#N)C(=O)Nc1ccccc12)N(C)C(=O)c1cc(F)c2nn(C)cc2c1 [Example 309]
- EC50: < 100 nM

Structure (SMILES): CC(C)C[C@@H](C(=O)N1C[C@]2(C[C@H]1C#N)C(=O)Nc1ccccc12)N(C)C(=O)c1cc(OC2CC2)c2nc(Cl)ccc2c1 [Example 310]
- EC50: 100 to 1000 nM

Structure (SMILES): CC(C)C[C@@H](C(=O)N1C[C@]2(C[C@H]1C#N)C(=O)Nc1ccccc12)N(C)C(=O)c1cc(F)c2nn(C3CC3)cc2c1 [Example 311]
- EC50: < 100 nM

Structure (SMILES): CC(C)C[C@@H](C(=O)N1C[C@]2(C[C@H]1C#N)C(=O)Nc1ccccc12)N(C)C(=O)c1cc(OC2CC2)c2ncccc2c1 [Example 312]
- EC50: 100 to 1000 nM

Structure (SMILES): CC(C)C[C@@H](C(=O)N1C[C@]2(C[C@H]1C#N)C(=O)Nc1ccccc12)N(C)C(=O)c1cc(OC2CC2)n2nc(C3CC3)c(C(=O)C(F)(F)F)c2c1 [Example 313]
- EC50: > 1000 nM

Structure (SMILES): CC(C)C[C@@H](C(=O)N1C[C@]2(C[C@H]1C#N)C(=O)Nc1ccccc12)N(C)C(=O)c1cc(F)c2nc(C3CC3)c(C(=O)C(F)(F)F)n2c1 [Example 314]
- EC50: < 100 nM

Structure (SMILES): CC(C)C[C@@H](C(=O)N1C[C@]2(C[C@H]1C#N)C(=O)Nc1ccccc12)N(C)C(=O)c1cc(OC2CC2)n2nc(C3CC3)cc2c1 [Example 315]
- EC50: 100 to 1000 nM

Structure (SMILES): CC(C)C[C@@H](C(=O)N1C[C@]2(C[C@H]1C#N)C(=O)Nc1ccccc12)N(C)C(=O)c1cc(Cl)c2nn(C3CC3)cc2c1 [Example 316]
- EC50: < 100 nM

Structure (SMILES): CC(C)C[C@@H](C(=O)N1C[C@]2(C[C@H]1C#N)C(=O)Nc1ccccc12)N(C)C(=O)c1cc(OC2CC2)c2nc(C3CC3)sc2c1 [Example 317]
- EC50: 100 to 1000 nM

Structure (SMILES): CC(C)C[C@@H](C(=O)N1C[C@]2(C[C@H]1C#N)C(=O)Nc1ccccc12)N(C)C(=O)c1cc(F)c2nc(C3CC3)cn2c1 [Example 318]
- EC50: < 100 nM

Structure (SMILES): COc1cc(C(=O)N(C)[C@@H](CC(C)C)C(=O)N2C[C@]3(C[C@H]2C#N)C(=O)Nc2ccccc23)cc2cn(C3(C)CC3)nc12 [Example 319]
- EC50: < 100 nM

Reference: patent EP4001279A1, “NOVEL SPIROPYRROLIDINE DERIVED ANTIVIRAL AGENTS” (Enanta Pharmaceuticals, Inc., priority 2020, dated 2022)
